Where “and” joins values, the source holds several entries; their conditions need not be identical. Identical values can stand only once.

For the test, the system named is 926638-142-R-J1-PDC complex spheroid viability. Kind of test: Anticancer human tumor 926638-142-R-J1-PDC patient-derived endometrial carcinoma cell line growth inhibition [POLQ]. The conditions noted are these: for viability, T/C: stronger effect = lower value. Here is the method: Multicellular complex tumor spheroid response to Polymerase (POL) inhibitors (novobiocin, ART-558, RP6685) in combination with a variety of drugs and investigational agents in selected tumor cell lines
The POL inhibitors (novobiocin, ART-558, and RP6685) were evaluated both individually and in combination with standard of care and investigational anticancer small molecules within a complex spheroid model of solid tumors. . Complex spheroids include a stromal component modeled by human endothelial cells (HUVEC) and fibroblasts modeled by human mesenchymal stem cells (MSCs). The concentration ranges selected for each drug and investigational agent were based upon clinically achievable concentrations if the clinical Cmax of the agent was known.
Compounds. The drugs and investigational agents: novobiocin (NSC847541), ART-558 (NSC835418), RP-6685 (NSC848927), peposertib (NSC802822), ceralasertib (NSC780249), elimusertib (NSC800525), camonsertib (NSC841442), AZD-1390 (NSC803789), olaparib (NSC753686), talazoparib (NSC767125), rucaparib (NSC756644), sotorasib (NSC818433), MRTX-1133 (NSC836407), SN-38 (NSC673596), topotecan (NSC609699), epotoside (NSC141540), doxorubicin (NSC123127), gemcitabine (NSC613327), 5-fluorouracil (NSC19893), paclitaxel (NSC125973), vemurafenib (NSC761431), MSA-2 (NSC828583), SN-011 (NSC837082), adavosertib (NSC754352), prexasertib (NSC758257), carboplatin (NSC241240) and oxaliplatin (NSC266046), were obtained from the National Cancer Institute (NCI) Developmental Therapeutics Program Chemical Repository (21). The FDA-approved anticancer drug set is available from the Developmental Therapeutics Program at https://dtp.cancer.gov/organization/dscb/obtaining/. […] The stock solutions were prepared in dimethyl sulfoxide (DMSO, Sigma-Aldrich, St. Louis, MO, cat. D2650), except for the platinum compounds which were prepared in saline (Quality Biological, Gaithersburg, MD, cat. 114-055-101), at 800-fold the tested concentration and stored at -70 degrees C prior to their use. All drugs and investigational agents were tested over a range starting from a high concentration at or near the clinical Cmax and decreasing in half-log increments. If the clinical Cmax for an agent had not been determined, the highest concentration tested was 10 microM, except for SN-38, which was tested at a high concentration of 1 microM.
Cell Culture. All cells were maintained in an incubator at 37 degrees C and 5% CO2 with 95% humidity. The PDC lines were cultured according to standard operating procedures established by the NCI PDMR (https://pdmr.cancer.gov). Table 3 of the manuscript, lists the cell lines along with the number of the three cell types plated to form the mct-spheroids and media for tumor cell growth. After thawing, all PDC lines, except 997537-175-T-J1-PDC and 415267-285-R-J2-PDC, were cultured in Matrigel-coated flasks prepared with a working solution of 1X Ham's F-12 nutrient mix, without supplementation (Thermo Fisher Scientific, cat. 11765054), 100 U/mL penicillin-streptomycin (Thermo Fisher Scientific, cat. 15140122), and 2.5% Matrigel (Corning Inc., Corning, NY, cat. 354248) for the first three passages. The two PDC lines 997537-175-T-J1-PDC and 415267-285-R-J2-PDC were cultured on uncoated flasks. The 857933-349-R-J2-PDC line was cultured in 6C/Colon 1B media containing advanced DMEM/F-12 (Thermo Fisher Scientific, cat. 12634028), 10 mM HEPES (Thermo Fisher Scientific, cat. 15630080), 1X GlutaMAX supplement (Thermo Fisher Scientific, cat. 35050061), 0.1 mg/mL primocin (InvivoGen, San Diego, CA, cat. ant-pm-2), 10% defined fetal bovine serum, heat inactivated (HyClone Laboratories Inc., Logan, UT, cat. SH30070.03HI), 50% L-WRN conditioned media (ATCC, cat. CRL-3276), 1.25 mM N-Acetyl-L-cysteine (Sigma-Aldrich, cat. A9165), 10 mM nicotinamide (Sigma-Aldrich, cat. N0636), 1X B-27 supplement (Thermo Fisher Scientific, cat. 17504044), 1X N-2 supplement (Thermo Fisher Scientific, cat. […]

[1] abbreviates: curve of first compound, second compound 0.0316 µM.
Setting [2] is: curve of first compound, second compound 0.1 µM.
The mark [3] stands for this setting: curve of first compound, second compound 0.316 µM.
Setting [4] is: curve of first compound, second compound 1 µM.
Where [5] appears, read: curve of first compound, second compound 3.16 µM.
Setting [6] is: curve of first compound, second compound 10 µM.
Setting [7] is: second compound 0.0316 µM, first compound 0.0316 µM.
Setting [8] is: second compound 0.0316 µM, first compound 0.1 µM.
The mark [9] stands for this setting: second compound 0.0316 µM, first compound 0.316 µM.
The mark [10] stands for this setting: second compound 0.0316 µM, first compound 1 µM.
Setting [11] is: second compound 0.1 µM, first compound 0.0316 µM.
The mark [12] stands for this setting: second compound 0.1 µM, first compound 0.1 µM.
Setting [13] is: second compound 0.1 µM, first compound 0.316 µM.
The mark [14] stands for this setting: second compound 0.1 µM, first compound 1 µM.
[15] abbreviates: second compound 0.316 µM, first compound 0.0316 µM.
The mark [16] stands for this setting: second compound 0.316 µM, first compound 0.1 µM.
[17] abbreviates: second compound 0.316 µM, first compound 0.316 µM.
Setting [18] is: second compound 0.316 µM, first compound 1 µM.
Where [19] appears, read: second compound 1 µM, first compound 0.0316 µM.
The mark [20] stands for this setting: second compound 1 µM, first compound 0.1 µM.
Setting [21] is: second compound 1 µM, first compound 0.316 µM.
Setting [22] is: second compound 1 µM, first compound 1 µM.
[23] abbreviates: second compound 3.16 µM, first compound 0.0316 µM.
Setting [24] is: second compound 3.16 µM, first compound 0.1 µM.
Setting [25] is: second compound 3.16 µM, first compound 0.316 µM.
Setting [26] is: second compound 3.16 µM, first compound 1 µM.
[27] abbreviates: second compound 10 µM, first compound 0.0316 µM.
Where [28] appears, read: second compound 10 µM, first compound 0.1 µM.
Setting [29] is: second compound 10 µM, first compound 0.316 µM.
Setting [30] is: second compound 10 µM, first compound 1 µM.
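Also: spheroids exposed to drugs for one week before readout.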
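For viability, T/C in this document: percent viability relative to DMSO vehicle control wells set as 100%.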

As for `Nc1ccn(C2OC(CO)C(O)C2(F)F)c(=O)n1` (centres undefined) + Cc1cccc(N(C)C(=O)C2C(O)CCN2c2nc(C)cc(C(F)(F)F)c2C#N)c1, the IC50 is, setting by setting: under setting [1], 1300 nM; under setting [2], 1730 nM; under setting [3], 844 nM; under setting [4], 624 nM; under setting [5], 821 nM; under setting [6], 535 nM. For the same compound, the viability, T/C was 88.1% under setting [7]; 66.7% under setting [8]; 54.9% under setting [9]; 62.1% under setting [10]; 44.8% (second compound 0.0316 µM, first compound 3.16 µM); 20.9% (second compound 0.0316 µM, first compound 10 µM). Also, the viability, T/C was 81.3% under setting [11]; 68.9% under setting [12]; 57.9% under setting [13]; 62.2% under setting [14]; 46% (second compound 0.1 µM, first compound 3.16 µM); 22.8% (second compound 0.1 µM, first compound 10 µM). Besides, the viability, T/C reads like this: under setting [15], 97.1%; under setting [16], 64.6%; under setting [17], 60.8%; under setting [18], 51.4%; (second compound 0.316 µM, first compound 3.16 µM) 43.7%; (second compound 0.316 µM, first compound 10 µM) 26.2%. Besides, the viability, T/C by setting is: under setting [19], 80.8%; under setting [20], 62.1%; under setting [21], 53.8%; under setting [22], 46.5%; (second compound 1 µM, first compound 3.16 µM) 44.2%; (second compound 1 µM, first compound 10 µM) 22.4%. Also, the viability, T/C under setting [23] is 89.4%; the viability, T/C under setting [24] is 63.6%; the viability, T/C under setting [25] was 48.5%; the viability, T/C under setting [26] is 60.4%; the viability, T/C (second compound 3.16 µM, first compound 3.16 µM) was 45.1%; the viability, T/C (second compound 3.16 µM, first compound 10 µM) was 28%. The viability, T/C is, setting by setting: under setting [27], 85.1%; under setting [28], 70.5%; under setting [29], 52%; under setting [30], 44.5%; (second compound 10 µM, first compound 3.16 µM) 41.4%; (second compound 10 µM, first compound 10 µM) 32.5%.

In the case of `C=CCn1c(=O)c2cnc(Nc3ccc(N4CCN(C)CC4)cc3)nc2n1-c1cccc(C(C)(C)O)n1` + Cc1cccc(N(C)C(=O)C2C(O)CCN2c2nc(C)cc(C(F)(F)F)c2C#N)c1, the IC50 by setting is: under setting [1], 390 nM; under setting [2], 714 nM; under setting [3], 321 nM; under setting [4], 627 nM; under setting [5], 374 nM; under setting [6], 276 nM. Further, the viability, T/C was 92% (second compound 0.0316 µM, first compound 0.00316 µM); 80.1% (second compound 0.0316 µM, first compound 0.01 µM); 90% under setting [7]; 64.9% under setting [8]; 55.6% under setting [9]; 34% under setting [10]. The viability, T/C by setting is: (second compound 0.1 µM, first compound 0.00316 µM) 106%; (second compound 0.1 µM, first compound 0.01 µM) 98.3%; under setting [11], 88.7%; under setting [12], 77.2%; under setting [13], 57.8%; under setting [14], 46.6%. The viability, T/C (second compound 0.316 µM, first compound 0.00316 µM) was 102%; the viability, T/C (second compound 0.316 µM, first compound 0.01 µM) is 94.4%; the viability, T/C under setting [15] was 71.6%; the viability, T/C under setting [16] is 61.2%; the viability, T/C under setting [17] was 54.7%; the viability, T/C under setting [18] is 37%. Also, the viability, T/C was 109% (second compound 1 µM, first compound 0.00316 µM); 91.5% (second compound 1 µM, first compound 0.01 µM); 76.1% under setting [19]; 81.1% under setting [20]; 60.8% under setting [21]; 40.8% under setting [22]. Further, the viability, T/C was 87.7% (second compound 3.16 µM, first compound 0.00316 µM); 99.6% (second compound 3.16 µM, first compound 0.01 µM); 81.2% under setting [23]; 78.8% under setting [24]; 51.1% under setting [25]; 36.9% under setting [26]. For the same compound, the viability, T/C (second compound 10 µM, first compound 0.00316 µM) was 79.5%; the viability, T/C (second compound 10 µM, first compound 0.01 µM) is 78.9%; the viability, T/C under setting [27] is 72.8%; the viability, T/C under setting [28] was 76.2%; the viability, T/C under setting [29] was 46.5%; the viability, T/C under setting [30] is 37.7%.

Regarding `COc1cc2cc(C(=O)CCC(=O)O)sc2cc1OC`, the viability, T/C was 90.1% and 110% and 93.5% (compound 0.0316 µM); 89.8% and 92.9% and 113% (compound 0.1 µM); 98.2% and 105% and 100% (compound 0.316 µM); 101% and 109% and 93.2% (compound 1 µM); 99.7% and 107% and 75.5% (compound 3.16 µM); 90.7% and 92.1% and 93.5% (compound 10 µM). Besides, for the setting “curve of compound”, the IC50 is over 10000 nM.

As to `O=c1[nH]cc(F)c(=O)[nH]1`, the viability, T/C reads like this: (compound 0.0316 µM) 109% and 99.3% and 86.3%; (compound 0.1 µM) 101% and 89.2% and 108%; (compound 0.316 µM) 92% (2×) and 87.6%; (compound 1 µM) 89% and 95.6% and 93%; (compound 3.16 µM) 84.3% and 86% and 78.8%; (compound 10 µM) 75% and 88% and 80%. Besides, the half-maximal inhibitory concentration (IC50) (curve of compound) is over 10000 nM.

On to `O=C(Nc1ccc(O)c(NS(=O)(=O)c2ccc(F)cc2)c1)c1ccc(-c2ccccc2)cc1`, for which the viability, T/C is, setting by setting: (compound 0.0316 µM) 102% and 99.8% and 82.6%; (compound 0.1 µM) 96.1% and 93.2% and 102%; (compound 0.316 µM) 94.9% and 98.2% and 96%; (compound 1 µM) 100% and 98.5% and 103%; (compound 3.16 µM) 78.1% and 104% and 105%; (compound 10 µM) 59.8% and 65.5% and 79.2%. Moreover, the IC50 (curve of compound) was over 10000 nM.

In the case of `CCc1c2c(nc3ccc(O)cc13)-c1cc3c(c(=O)n1C2)COC(=O)[C@]3(O)CC`, the viability, T/C (compound 0.00316 µM) was 65.4% and 62.4% and 71.3%; the viability, T/C (compound 0.01 µM) is 46.9% and 39.7% and 51.1%; the viability, T/C (compound 0.0316 µM) was 39% and 39.6% and 38.6%; the viability, T/C (compound 0.1 µM) was 24.9% and 26.6% and 21%; the viability, T/C (compound 0.316 µM) is 10.9% and 16.3% and 8.99%; the viability, T/C (compound 1 µM) was 4.17% and 12.3% and 5.58%. Further, for the setting “curve of compound”, the IC50 was 10 nM and 7.31 nM and 12.5 nM.

With `O=C(c1cc(Cc2n[nH]c(=O)c3ccccc23)ccc1F)N1CCN(C(=O)C2CC2)CC1`, the viability, T/C (compound 0.0316 µM) is 88.8% and 70.9% and 97%; the viability, T/C (compound 0.1 µM) was 85.3% and 91.2% and 85.1%; the viability, T/C (compound 0.316 µM) is 86.5% and 105% and 91.6%; the viability, T/C (compound 1 µM) is 88.9% and 104% and 100%; the viability, T/C (compound 3.16 µM) is 85% and 76.3% and 79.9%; the viability, T/C (compound 10 µM) is 70.9% and 87.5% and 73%. In addition, the IC50 (curve of compound) was over 10000 nM.
